Where “and” joins values, the source holds several entries; their conditions need not be identical. Equal values may be shown once. Toxic doses and inconclusive results are not listed.
Tested on: L1210 leukemia ip in BDF1 mice, survival T/C
Experiment: NCI In Vivo Anticancer Drug Screen. Data for tumor model L1210 Leukemia (intraperitoneal) in B6D2F1 (BDF1) mice
Settings: higher = longer survival
Outline: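 Value reflects the ratio of survival in compound-treated mice to survival in vehicle-treated controls, with both groups carrying the same transplanted tumor.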

NC(=S)N/N=C/c1ccc(O)cn1
T/C (endpoint: mean survival time, dose: 200.0 mg/kg/injection, schedule: Q## X008 (oral), vehicle: other): 111 % of control | T/C (endpoint: mean survival time, dose: 200.0 mg/kg/injection, schedule: Q## X016 (oral), vehicle: other): 106 % of control | T/C (endpoint: mean survival time, dose: 200.0 mg/kg/injection, schedule: Q## X024 (oral), vehicle: other): 102 % of control | T/C (endpoint: mean survival time, dose: 280.0 mg/kg/injection, schedule: Q01DX001 (ip), vehicle: saline with Tween-80): 118 % of control and 119 % of control | T/C (endpoint: mean survival time, dose: 300.0 mg/kg/injection, schedule: Q01DX001 (ip), vehicle: alkali diluted with saline): 108 % of control | T/C (endpoint: mean survival time, dose: 300.0 mg/kg/injection, schedule: Q01DX009 (ip), vehicle: saline with Tween-80): 107 % of control | T/C (endpoint: mean survival time, dose: 300.0 mg/kg/injection, schedule: Q08DX002 (ip), vehicle: alkali diluted with saline): 105 % of control | T/C (endpoint: mean survival time, dose: 400.0 mg/kg/injection, schedule: Q01DX001 (ip), vehicle: saline): 109 % of control | T/C (endpoint: mean survival time, dose: 400.0 mg/kg/injection, schedule: Q01DX001 (oral), vehicle: other): 105 % of control | T/C (endpoint: mean survival time, dose: 400.0 mg/kg/injection, schedule: Q01DX009 (oral), vehicle: carboxymethylcellulose (CMC)): 153 % of control | T/C (endpoint: mean survival time, dose: 400.0 mg/kg/injection, schedule: Q01DX009 (oral), vehicle: other): 156 % of control | T/C (endpoint: mean survival time, dose: 400.0 mg/kg/injection, schedule: Q01DX015 (ip), vehicle: carboxymethylcellulose (CMC)): 103 % of control | T/C (endpoint: mean survival time, dose: 400.0 mg/kg/injection, schedule: Q03HX024 (ip), vehicle: clinical formulation): 98 % of control | T/C (endpoint: mean survival time, dose: 400.0 mg/kg/injection, schedule: Q## X002 (oral), vehicle: other): 105 % of control | T/C (endpoint: mean survival time, dose: 400.0 mg/kg/injection, schedule: Q## X003 (ip), vehicle: other): 150 % of control | T/C (endpoint: mean survival time, dose: 400.0 mg/kg/injection, schedule: Q## X003 (oral), vehicle: other): 116 % of control | T/C (endpoint: mean survival time, dose: 400.0 mg/kg/injection, schedule: Q## X008 (oral), vehicle: other): 110 % of control | T/C (endpoint: mean survival time, dose: 400.0 mg/kg/injection, schedule: Q## X016 (oral), vehicle: other): 120 % of control | T/C (endpoint: mean survival time, dose: 400.0 mg/kg/injection, schedule: Q## X024 (oral), vehicle: other): 122 % of control | T/C (endpoint: mean survival time, dose: 427.0 mg/kg/injection, schedule: Q01DX001 (ip), vehicle: saline with Tween-80): 121 % of control and 122 % of control | T/C (endpoint: mean survival time, dose: 600.0 mg/kg/injection, schedule: Q01DX001 (ip), vehicle: alkali diluted with saline): 108 % of control | T/C (endpoint: mean survival time, dose: 600.0 mg/kg/injection, schedule: Q01DX005 (ip), vehicle: other): 97 % of control | T/C (endpoint: mean survival time, dose: 600.0 mg/kg/injection, schedule: Q01DX009 (ip), vehicle: other): 108 % of control | T/C (endpoint: mean survival time, dose: 600.0 mg/kg/injection, schedule: Q08DX002 (ip), vehicle: alkali diluted with saline): 105 % of control | T/C (endpoint: mean survival time, dose: 800.0 mg/kg/injection, schedule: Q01DX001 (oral), vehicle: other): 106 % of control | T/C (endpoint: mean survival time, dose: 800.0 mg/kg/injection, schedule: Q## X002 (oral), vehicle: other): 115 % of control | T/C (endpoint: mean survival time, dose: 800.0 mg/kg/injection, schedule: Q## X003 (oral), vehicle: other): 107 % of control | T/C (endpoint: mean survival time, dose: 800.0 mg/kg/injection, schedule: Q## X008 (oral), vehicle: other): 123 % of control | T/C (endpoint: mean survival time, dose: 800.0 mg/kg/injection, schedule: Q## X024 (oral), vehicle: other): 155 % of control | T/C (endpoint: mean survival time, dose: 833.0 mg/kg/injection, schedule: Q01DX001 (ip), vehicle: saline): 153 % of control | T/C (endpoint: mean survival time, dose: 1200.0 mg/kg/injection, schedule: Q01DX001 (ip), vehicle: other): 158 % of control | T/C (endpoint: mean survival time, dose: 1388.0 mg/kg/injection, schedule: Q01DX001 (ip), vehicle: saline): 157 % of control | T/C (endpoint: mean survival time, dose: 1600.0 mg/kg/injection, schedule: Q## X024 (ip), vehicle: other): 104 % of control | T/C (endpoint: mean survival time, dose: 2400.0 mg/kg/injection, schedule: Q01DX001 (ip), vehicle: saline): 150 % of control and 152 % of control | T/C (endpoint: mean survival time, dose: 2400.0 mg/kg/injection, schedule: Q## X016 (ip), vehicle: other): 100 % of control | T/C (endpoint: median survival time, dose: 37.5 mg/kg/injection, schedule: Q01DX009 (ip), vehicle: water): 155 % of control and 157 % of control | T/C (endpoint: median survival time, dose: 50.0 mg/kg/injection, schedule: Q01DX009 (ip), vehicle: other): 150 % of control | T/C (endpoint: median survival time, dose: 100.0 mg/kg/injection, schedule: Q04DX003 (ip), vehicle: other): 105 % of control | T/C (endpoint: median survival time, dose: 100.0 mg/kg/injection, schedule: Q04DX003 (sc), vehicle: other): 100 % of control | T/C (endpoint: median survival time, dose: 150.0 mg/kg/injection, schedule: Q01DX009 (ip), vehicle: water): 122 % of control and 124 % of control | T/C (endpoint: median survival time, dose: 200.0 mg/kg/injection, schedule: Q04DX003 (ip), vehicle: other): 120 % of control | T/C (endpoint: median survival time, dose: 300.0 mg/kg/injection, schedule: Q01DX009 (ip), vehicle: water): 105 % of control and 106 % of control | T/C (endpoint: median survival time, dose: 400.0 mg/kg/injection, schedule: Q04DX003 (ip), vehicle: other): 100 % of control | T/C (endpoint: median survival time, dose: 400.0 mg/kg/injection, schedule: Q04DX003 (sc), vehicle: other): 120 % of control | T/C (endpoint: median survival time, dose: 500.0 mg/kg/injection, schedule: Q01DX001 (ip), vehicle: saline): 150 % of control | T/C (endpoint: median survival time, dose: 1388.0 mg/kg/injection, schedule: Q01DX001 (ip), vehicle: saline): 157 % of control

Source: PubChem BioAssay AID248 (DTP/NCI, 2004)
